Key:
[1] = Rhenium molecular probe-lipid overlay (dot blot); type: binding; settings: FIG. 7
Protocol: (§1) The experimental protocol probe-lipid overlay was as follows: 50 μM of each lipids was loaded on to PVDF membranes (Perkin Elmer, USA), which were then incubated with molecular probes. PhenCyano and PhenPyridyl were assessed against eleven lipids including; sphingomyelin (Cat # S0756, Sigma Aldrich, USA), sphingosine (Cat # S7049; Sigma Aldrich, USA), L-phosphatidylethanolamine (Cat # P7943, Sigma Aldrich, USA), monosialodanglioside (GM1; Cat # G7641, Sigma Aldrich, USA), oleoly-L-?-lysophosphatidic acid (Cat # L7260, Sigma Aldrich, USA), palmitic acid (Cat # P5917, Sigma Aldrich, USA), sphingomyelin (Cat # S0756, Sigma Aldrich, USA), sphingosine (Cat # S7049; Sigma Aldrich, USA), L-?-phosphatidylethanolamine (Cat # P7943, Sigma Aldrich, USA), monosialodanglioside (GM1; Cat # G7641, Sigma Aldrich, USA), progesterone (Cat #102722, MP Biomedical, USA), ceramide (Cat # C2137; Sigma Aldrich, USA), triacylglycerol mix C2-C10 (Cat #17810, Sigma Aldrich, USA) and cholesteryl acetate (Cat #151114; Sigma Aldrich, USA).
(§2) Lipids were dissolved in ethanol, methanol or isopropanol for loading depending on solubility. Following lipid loading, membranes were left to dry for 20-30 minutes, then they were washed for 10 minutes in cold 10% ethanol, before they were incubated with 10 μM solution of each Rhenium molecular probe in cold 10% ethanol for one hour. Membranes were than washed four times for 10 minutes in cold 10% ethanol prior to imaging. Imaging was performed on an Image Quant Las 4000 (GE, Sweden) luminescent image analyser, with the Rhenium molecular probe being detected by excitation at 460 nm using an epi-blue light source, and detected using an 575 nm ethidium bromide filter.

[2] = Rhenium molecular probe-lipid overlay (dot blot); type: binding; parameters: key to interaction with Sphingomyline (dot blot): ✓ indicates a positive interaction; x indicates no interaction
Protocol: as §1
(§3) All other molecular probes were assessed against a panel of six lipids including; sphingomyelin (Cat # S0756, Sigma Aldrich, USA), sphingosine (Cat # S7049; Sigma Aldrich, USA), L-?-phosphatidylethanolamine (Cat # P7943, Sigma Aldrich, USA), monosialodanglioside (GM1; Cat # G7641, Sigma Aldrich, USA), sphingomyelin (Cat # S0756, Sigma Aldrich, USA), sphingosine (Cat # S7049; Sigma Aldrich, USA), L-?-phosphatidylethanolamine (Cat # P7943, Sigma Aldrich, USA), monosialodanglioside (GM1; Cat # G7641, Sigma Aldrich, USA) and triacylglycerol mix C2-C10 (Cat #17810, Sigma Aldrich, USA).
as §2

[3] = Rhenium probe-lipid overlay, Example 5; type: binding
Protocol: To determine the binding properties of tricarbonyl-(4-cyanophenyltretrazolato)-phenanthroline-rhenium (I) (Rhenium probe) to various lipids, Rhenium probe-lipid overlay was performed using either lipids spotted onto PDVF membranes (Perkin Elmer, USA) or lipid MicroStrips (Echelon Biosciences Inc., Salt Lake City, Utah). The membranes contained at least 100 pmoles of each lipid in individual spots (supplementary table 1) or 10 μL (each in PBS) of 10% (v/v) glycerol, 1% (v/v) CHAPS, 1% (w/v) SDS, 1% (v/v) Tween20, Ecydsone (10 μg/100 μL), cholesterol (10 μg/100 μL), progesterone (10 μg/100 μL), PBS, or 1% (v/v) ethanol; and were incubated with 0.5 mM of Rhenium probe in 1% (w/v) BSA/PBS for 40 minutes and then washed four times for 10 minutes in PBS. Imaging was performed on an Image Quant Las 4000 (GE, Sweden) luminescent image analyser, with the Rhenium probe being detected by excitation at 460 nm using an epi-blue light source, and detected using an 605 nm ethidium bromide filter.

[4] = test system: Drosophila fat body cells; experiment: Live tissue staining with rhenium molecular probes (Examples 10, 13); type: cell-based
Protocol: Probes were dissolved in DMSO to obtain a stock solution with a concentration of 10 mM. Stock solutions were stored at room temperature in a dark place. Working solutions were prepared only at the time of use as the probe has reduced solubility in aqueous solutions. A Working solution was a dilution 1/1000 to 1/500 of the stock in DMSO to PBS or cell medium, and as such the percentage of DMSO used in actual cell experiments was less than 1%.
For tissues, the tissues were isolated in PBS (or other physiological media) and mounted on a coverslip. For cells, these were grown as per normal practice on coverslips.
The media was removed media and replaced with 10-20 μM solution of molecular probes in PBS (or appropriate physiological media/cell media) at a dilution of stock solution from 1/1000-1/500, for 15-30 minutes at physiologically appropriate temperature (37° C. for cell culture or 25° C. for insect larvae). […] If foetal calf serum is necessary for cell health, an increased incubation time may be necessary to obtain adequate staining.
The samples were washed for one minute in PBS. If co-staining was performed, the samples were washed in PBS for 30 seconds, before incubating with counterstain.
Tissues were mounted in optical coupling gel, such as carbomer-940 (Snowdrift farm, Tucson, USA) based gel to prevent dehydration prior to imaging and maintain tissue integrate (Rothstein, E. C., Nauman, M., Chesnick S., Balaban R. S., 2006, Multi-photon excitation microscopy in intact animals Journal of Microscopy 222, 58, 64). For cells, the coverslip was mounted in PBS for immediate imaging.
Samples were imaged immediately following staining.
Rhenium molecular probes were? excited at 800-830 nm using a two-photon pulse laser or 405 steady state laser and detection in the range of 490-670 nm, with an emission maxima at around 570.
Micrographs of 3T3 L1, 453 cells and CHOK1 cells and Drosophila fat body tissue stained with rhenium molecular probes, PhenCyan top, PhenPyridyl bottom are shown in FIG. 10. […] Left: confocal images; Right: fluorescence microscopy images. […]

[5] = Rhenium molecular probe-lipid overlay (dot blot); type: binding; parameters: key to interaction with Sphingosine (dot blot): ✓ indicates a positive interaction; x indicates no interaction
Protocol: as §1, §3, §2

[6] = Rhenium molecular probe-lipid overlay (dot blot); type: binding; parameters: key to interaction with GM1 (dot blot): ✓ indicates a positive interaction; x indicates no interaction
Protocol: as §1, §3, §2

[7] = 10 μM probe, 50 μM lipid on PVDF membrane
[8] = 0.5 mM probe in 1% BSA/PBS, FIG. 6

N#Cc1ccc(-c2nn[n]([Re](=[C]=O)(=[C]=O)=[C]=O)n2)cc1.c1cnc2c(c1)ccc1cccnc12 [PhenCyano, Triscarbonyl phenanthroline (4-cyanophenyltetrazolato)Rhenium(I)]
interaction with cholesterol ester (cholesteryl acetate), in words [1]: no interaction detected | interaction with Sphingomyline (dot blot) [2, 7]: ✓ | affinity towards sphingomyelin, in words ([2]; FIG. 7 / FIG. 8): some affinity | reactivity with long chain fatty acids ([3]; 0.5 mM probe in 1% BSA/PBS): did not react | reactivity with neutral lipids ([3]; 0.5 mM probe in 1% BSA/PBS): did not react | interaction with cholesterol [3, 8]: interacted | interaction with ecdysone [3, 8]: interacted | interaction with progesterone [3, 8]: interacted | reactivity with CHAPS [3, 8]: high level of reactivity | reactivity with deoxycholate [3, 8]: high level of reactivity | reactivity with SDS ([3]; auto-reactivity of SDS alone at 575-605 nm on membrane): some residual background reactivity | reactivity with Tween® 20 ([3]; auto-reactivity of Tween 20 alone at 575-605 nm on membrane): some residual background reactivity | emission spectral profile in the acidic compartment versus lipid droplet ([4]; +2 h PF, following autophagic inducement): blue shift and an increase in emission intensity | staining pattern in Drosophila fat body cells ([4]; live samples, 10-20 μM probe): distribution consistent with lipid droplet staining | interaction with Sphingosine (dot blot) [5, 7]: ✓ | affinity towards sphingosine, in words ([5]; FIG. 7 / FIG. 8): some affinity | interaction with GM1 (dot blot) [6, 7]: ✓ | affinity towards monosialotetrahexosylganglioside (GM1), in words ([6]; FIG. 7 / FIG. 8): some affinity
